Assay results published in patent US11584765B2 (priority 2017, dated 2023).

Test system: C57BL/6 mice
Test: animal or person
Type: in vivo
Conditions: Mus musculus, sc, 0.5 h, s.c. administration, 30 min, 55° C. water, read-out: ED50 (mg/kg) at 30 min on C57BL/6 mice in Warm-water Tail-flick Test

SMILES	ED50
CCOC[C@@]1(CCc2cccs2)CCN(C(C)c2cnn(C)c2C)C1 (stereo partly drawn) [Compound 378, 4-(1-((S)-3-(ethoxymethyl)-3-(2-(thiophen-2-yl)ethyl)pyrrolidin-1-yl)ethyl)-1,5-dimethyl-1H-pyrazole]	< 10 mg/kg
CC(=O)Nc1ccc(CN2CCC(CCc3ccccc3)(c3nccn3C)CC2)cc1 [Compound 34, N-(4-((4-(1-methyl-1H-imidazol-2-yl)-4-phenethylpiperidin-1-yl)methyl)phenyl)acetamide]	> 10 mg/kg
CCOC[C@@]1(COCc2ccccc2)CCN(C(C)(C)c2ccc(C)nc2)C1.Cl [Compound 458, (R)-5-(2-(3-((benzyloxy)methyl)-3-(ethoxy-methyl)pyrrolidin-1-yl)propan-2-yl)-2-methylpyridine HCl]	< 10 mg/kg
CCOCC1(CCc2ccccc2)CCN(Cc2ccc(Nc3ncccn3)cc2)C1 (centres unmarked) [Compound 207, N-(4-((3-(ethoxymethyl)-3-phenethylpyrrolidin-1-yl)methyl)phenyl)pyri-midin-2-amine]	> 10 mg/kg
CCOCC1(CCc2cccs2)CCN(Cc2cnc(C)s2)CC1 [Compound 254]	> 10 mg/kg
CCOC[C@@]1(COc2ccccc2)CCN(Cc2ccc(C)nc2)C1 [Compound 419, (R)-5-((3-(ethoxymethyl)-3-(phenoxy-methyl)pyrrolidin-1-yl)methyl)-2-methylpyridine]	< 10 mg/kg
CCNc1ccc(CN2CCC(CCc3ccccc3)(CNC)CC2)cc1 [Compound 119, N-ethyl-4-((4-((methylamino)methyl)-4-phenethylpiperidin-1-yl)methyl)aniline]	> 10 mg/kg
c1ccc(CCC2(C3CCCO3)CCN(Cc3ccccc3-c3ccco3)C2)cc1 (centres unmarked) [Compound 195, 1-(2-(furan-2-yl)benzyl)-3-phenethyl-3-(tetrahydrofuran-2-yl)pyrrolidine]	> 10 mg/kg
CC(=O)Nc1ccc(CN2CCC(CCc3ccccc3)(C3CO3)CC2)cc1 (centres unmarked) [Compound 94, N-(4-((4-(oxiran-2-yl)-4-phenethylpiperidin-1-yl)methyl)phenyl)acetamide]	> 10 mg/kg
CCOCC1(CCc2ccccc2)CCN(Cc2ccnn2C)CC1 [Compound 246, 4-(ethoxymethyl)-1-((1-methyl-1H-pyrazol-5-yl)methyl)-4-phenethylpiperidine]	> 10 mg/kg
CCOCC1(CCc2cc(C)cs2)CCN(Cc2ccc(C)nc2)C1 (centres unmarked) [Compound 297, 5-((3-(ethoxymethyl)-3-(2-(4-methylthiophen-2-yl)ethyl)pyrrolidin-1-yl)methyl)-2-methylpyridine]	< 10 mg/kg
CCOC[C@@]1(CCc2ccc(=O)[nH]c2)CCN(C(C)(C)c2ccc(C)nc2)C1.Cl [Compound 376]	< 10 mg/kg
CCOCC1(CCc2cccs2)CCN(Cc2ccc(NC(C)=O)cc2)C1 (centres unmarked) [Compound 177, N-(4-((3-(ethoxymethyl)-3-(2-(thiophen-2-yl)ethyl)pyrrolidin-1-yl)methyl)phenyl)acetamide]	< 10 mg/kg
CCOC[C@@]1(CCc2csc(C)c2)CCN(C(C)(C)c2ccc(C)nc2)C1 [Compound 354, (S)-5-(2-(3-(ethoxymethyl)-3-(2-(5-methylthiophen-3-yl)ethyl)pyrrolidin-1-yl)propan-2-yl)-2-methylpyridine]	< 10 mg/kg
CCOC[C@@]1(CCc2cc(C)cs2)CCN(Cc2ccc(C)nc2)C1 [Compound 321, (S)-5-((3-(ethoxymethyl)-3-(2-(4-methylthiophen-2-yl)ethyl)pyrrolidin-1-yl)methyl)-2-methylpyridine]	< 10 mg/kg
CC(C)OC[C@@]1(CCc2cccs2)CCN(Cc2cccnc2)C1 [Compound 388, (S)-3-((3-(isopropoxy-methyl)-3-(2-(thiophen-2-yl)ethyl)pyrrolidin-1-yl)methyl)pyridine]	< 10 mg/kg

SMILES	ED50
CCOCC1(CCc2ccc(F)cc2)CCN(Cc2ccc(NC(C)=O)cc2)CC1 [Compound 104, N-(4-((4-(ethoxymethyl)-4-(4-fluoro-phenethyl)piperidin-1-yl)methyl)phenyl)acetamide]	> 10 mg/kg
CCOCC1(CCc2cccs2)CCN(Cc2cnn(CC)c2)CC1 [Compound 256, 4-(ethoxymethyl)-1-((l-ethyl-1H-pyrazol-4-yl)methyl)-4-(2-(thiophen-2-yl)ethyl)piperidine]	< 10 mg/kg
CCOCC1(CCc2ccsc2)CCN(Cc2ccc(NC(C)=O)cc2)CC1 [Compound 147, N-(4-((4-(ethoxymethyl)-4-(2-(thiophen-3-yl)ethyl)piperidin-1-yl)methyl)phenyl)acetamide]	< 10 mg/kg
CCOCC1(CCc2ccccc2)CCN(Cc2ccc(-c3nccs3)cc2)CC1 [Compound 134, 2-(4-((4-(ethoxymethyl)-4-phenethylpiperidin-1-yl)methyl)phenyl)thiazole]	> 10 mg/kg
CCOC[C@@]1(CCc2cccs2)CCN(Cc2c(C)ccnc2C)C1 [Compound 404, (S)-3-((3-(ethoxymethyl)-3-(2-(thiophen-2-yl)ethyl)pyrrolidin-1-yl)methyl)-2,4-dimethylpyridine]	< 10 mg/kg
Cc1ccc(CN2CCC(CCc3ccccc3)(c3ccccn3)CC2)c(C)n1 [Compound 310, 2,6-dimethyl-3-((4-phenethyl-4-(pyridin-2-yl)piperidin-1-yl)methyl)pyridine]	< 10 mg/kg
CCOC[C@@]1(CCc2ccccc2F)CCN(Cc2cccnc2)C1 [Compound 440]	< 10 mg/kg
CCOCC1(CCc2ccc(F)cc2)CCN(Cc2ccc(C)nc2)C1 (centres unmarked) [Compound 296, 5-((3-(ethoxymethyl)-3-(4-fluoro-phenethyl)pyrrolidin-1-yl)methyl)-2-methylpyridine]	< 10 mg/kg
CCOCC1(CCc2ccccc2)CCN(Cc2ccc(C(N)=O)cc2)CC1 [Compound 89, 4-((4-(ethoxymethyl)-4-phenethylpiperidin-1-yl)methyl)benzamide]	> 10 mg/kg
CCOCC1(CCC2CC2)CCN(Cc2ccc(NC(C)=O)cc2)CC1 [Compound 101, N-(4-((4-(2-cyclopropylethyl)-4-(ethoxymethyl)piperidin-1-yl)methyl)phenyl)acetamide]	> 10 mg/kg
CCOC[C@@]1(CCc2ccccc2)CCN(Cc2cnn(C)c2)C1 [Compound 235, (S)-4-((3-(ethoxymethyl)-3-phenethylpyrrolidin-1-yl)methyl)-1-methyl-1H-pyrazole]	< 10 mg/kg
COc1ccc(C2(/C=C/c3ccccc3)CCN(Cc3ccc(NC(C)=O)cc3)CC2)nc1 [Compound 62, (E)-N-(4-((4-(5-methoxypyridin-2-yl)-4-styrylpiperidin-1-yl)methyl)phenyl)acetamide]	> 10 mg/kg
CCOC[C@@]1(CCc2ncccn2)CCN(C(C)(C)c2ccc(C)nc2)C1 [Compound 360, (S)-2-(2-(3-(ethoxymethyl)-1-(2-(6-methylpyridin-3-yl)propan-2-yl)pyrrolidin-3-yl)ethyl)pyrimidine]	< 10 mg/kg
CCOC[C@@]1(CCc2ccsc2)CCN(Cc2ccc(NC(C)=O)cc2)C1 [Compound 324, (S)-N-(4-((3-(ethoxymethyl)-3-(2-(thiophen-3-yl)ethyl)pyrrolidin-1-yl)methyl)phenyl)acetamide]	< 10 mg/kg
CCOCC1(CCc2ccsc2C)CCN(Cc2cnn(C)c2)CC1 [Compound 278, 4-(ethoxymethyl)-1-((1-methyl-1H-pyrazol-4-yl)methyl)-4-(2-(2-methylthiophen-3-yl)ethyl)piperidine]	< 10 mg/kg
CCOCC1(CCc2cccs2)CCCN1Cc1cccnc1.Cl (centres unmarked) [Compound 451, 3-((2-(ethoxymethyl)-2-(2-(thiophen-2-yl)ethyl)pyrrolidin-1-yl)methyl)pyridine HCl]	< 10 mg/kg
